Entries after “also recorded” stand apart in the source; their conditions may differ.
Test system: patients with advanced solid tumors
Test: Phase I safety and tolerability
Assay type: in vivo, human
[1] = Cohort 3 (N=3), 40 mg BID 10 days + carboplatin
[2] = Cohort 3: 40 mg BID days 4–13 (10 days) + carboplatin AUC5, 3 patients
[3] = Cohort 4 (N=3), 40 mg BID 7 days + carboplatin
[4] = Cohort 4: 40 mg BID days 4–10 (7 days) + carboplatin AUC5, 3 patients
[5] = Cohort 5 (N=8), 60 mg QD 7 days + carboplatin

## C[C@@H]1COCCN1c1cc(C2([S@](C)(=N)=O)CC2)nc(-c2cc[nH]c3nccc2-3)n1 [ceralasertib]
[1]
  TEAE Anemia, Grade ≥3: 0 patients, n (%)
  TEAE Any AE, Grade 1–2: 1 (33) patients, n (%)
  TEAE Any AE, Grade ≥3: 2 (67) patients, n (%)
  TEAE Arthralgia, Grade 1–2: 0 patients, n (%)
  TEAE Arthralgia, Grade ≥3: 0 patients, n (%)
  TEAE Aspartate aminotransferase increased, Grade 1–2: 0 patients, n (%)
  TEAE Aspartate aminotransferase increased, Grade ≥3: 0 patients, n (%)
  TEAE Constipation, Grade 1–2: 1 (33) patients, n (%)
  TEAE Constipation, Grade ≥3: 0 patients, n (%)
  TEAE Contusion, Grade 1–2: 2 (67) patients, n (%)
  TEAE Contusion, Grade ≥3: 0 patients, n (%)
  TEAE Cough, Grade 1–2: 0 patients, n (%)
  TEAE Cough, Grade ≥3: 0 patients, n (%)
  TEAE Decreased appetite, Grade 1–2: 1 (33) patients, n (%)
  TEAE Decreased appetite, Grade ≥3: 0 patients, n (%)
  TEAE Diarrhea, Grade 1–2: 0 patients, n (%)
  TEAE Diarrhea, Grade ≥3: 0 patients, n (%)
  TEAE Dizziness, Grade 1–2: 0 patients, n (%)
  TEAE Dizziness, Grade ≥3: 0 patients, n (%)
  TEAE Dyspnea, Grade 1–2: 0 patients, n (%)
  TEAE Dyspnea, Grade ≥3: 0 patients, n (%)
  TEAE Fatigue, Grade 1–2: 1 (33) patients, n (%)
  TEAE Fatigue, Grade ≥3: 0 patients, n (%)
  TEAE Hypocalcemia, Grade 1–2: 0 patients, n (%)
  TEAE Hypocalcemia, Grade ≥3: 0 patients, n (%)
  TEAE Insomnia, Grade 1–2: 1 (33) patients, n (%)
  TEAE Insomnia, Grade ≥3: 0 patients, n (%)
  TEAE Lower respiratory tract infection, Grade 1–2: 0 patients, n (%)
  TEAE Lower respiratory tract infection, Grade ≥3: 0 patients, n (%)
  TEAE Nausea, Grade 1–2: 0 patients, n (%)
  TEAE Nausea, Grade ≥3: 0 patients, n (%)
  TEAE Neutropenia, Grade 1–2: 1 (33) patients, n (%)
  TEAE Neutropenia, Grade ≥3: 2 (67) patients, n (%)
  TEAE Neutrophil count decreased, Grade 1–2: 0 patients, n (%)
  TEAE Neutrophil count decreased, Grade ≥3: 0 patients, n (%)
  TEAE Platelet count decreased, Grade 1–2: 1 (33) patients, n (%)
  TEAE Platelet count decreased, Grade ≥3: 0 patients, n (%)
  TEAE Pyrexia, Grade 1–2: 0 patients, n (%)
  TEAE Pyrexia, Grade ≥3: 0 patients, n (%)
  TEAE Thrombocytopenia, Grade 1–2: 1 (33) patients, n (%)
  TEAE Thrombocytopenia, Grade ≥3: 2 (67) patients, n (%)
  TEAE Upper respiratory tract infection, Grade 1–2: 0 patients, n (%)
  TEAE Upper respiratory tract infection, Grade ≥3: 0 patients, n (%)
  TEAE Vomiting, Grade 1–2: 0 patients, n (%)
  TEAE Vomiting, Grade ≥3: 0 patients, n (%)
  TEAE White blood cell count decreased, Grade 1–2: 0 patients, n (%)
  TEAE White blood cell count decreased, Grade ≥3: 0 patients, n (%)
[2]
  Number of DLTs: no DLTs
  SRC decision (tolerability): declared intolerable; also recorded: Not tolerated
[3]
  TEAE Abdominal pain, Grade 1–2: 1 (33) patients, n (%)
  TEAE Abdominal pain, Grade ≥3: 0 patients, n (%)
  TEAE Alanine aminotransferase increased, Grade 1–2: 1 (33) patients, n (%)
  TEAE Alanine aminotransferase increased, Grade ≥3: 0 patients, n (%)
  TEAE Anemia, Grade 1–2: 1 (33) patients, n (%)
  TEAE Anemia, Grade ≥3: 1 (33) patients, n (%)
  TEAE Any AE, Grade 1–2: 0 patients, n (%)
  TEAE Any AE, Grade ≥3: 3 (100) patients, n (%)
  TEAE Arthralgia, Grade 1–2: 0 patients, n (%)
  TEAE Arthralgia, Grade ≥3: 0 patients, n (%)
  TEAE Aspartate aminotransferase increased, Grade 1–2: 0 patients, n (%)
  TEAE Aspartate aminotransferase increased, Grade ≥3: 0 patients, n (%)
  TEAE Constipation, Grade 1–2: 1 (33) patients, n (%)
  TEAE Constipation, Grade ≥3: 0 patients, n (%)
  TEAE Contusion, Grade 1–2: 0 patients, n (%)
  TEAE Contusion, Grade ≥3: 0 patients, n (%)
  TEAE Cough, Grade 1–2: 0 patients, n (%)
  TEAE Cough, Grade ≥3: 0 patients, n (%)
  TEAE Decreased appetite, Grade 1–2: 1 (33) patients, n (%)
  TEAE Decreased appetite, Grade ≥3: 0 patients, n (%)
  TEAE Diarrhea, Grade 1–2: 0 patients, n (%)
  TEAE Diarrhea, Grade ≥3: 0 patients, n (%)
  TEAE Dizziness, Grade 1–2: 1 (33) patients, n (%)
  TEAE Dizziness, Grade ≥3: 0 patients, n (%)
  TEAE Dyspnea, Grade 1–2: 0 patients, n (%)
  TEAE Dyspnea, Grade ≥3: 0 patients, n (%)
  TEAE Fatigue, Grade 1–2: 1 (33) patients, n (%)
  TEAE Fatigue, Grade ≥3: 0 patients, n (%)
  TEAE Hypocalcemia, Grade 1–2: 0 patients, n (%)
  TEAE Hypocalcemia, Grade ≥3: 0 patients, n (%)
  TEAE Insomnia, Grade 1–2: 0 patients, n (%)
  TEAE Insomnia, Grade ≥3: 0 patients, n (%)
  TEAE Lower respiratory tract infection, Grade 1–2: 0 patients, n (%)
  TEAE Lower respiratory tract infection, Grade ≥3: 0 patients, n (%)
  TEAE Nausea, Grade 1–2: 2 (67) patients, n (%)
  TEAE Nausea, Grade ≥3: 0 patients, n (%)
  TEAE Neutropenia, Grade 1–2: 1 (33) patients, n (%)
  TEAE Neutropenia, Grade ≥3: 1 (33) patients, n (%)
  TEAE Neutrophil count decreased, Grade 1–2: 0 patients, n (%)
  TEAE Neutrophil count decreased, Grade ≥3: 1 (33) patients, n (%)
  TEAE Platelet count decreased, Grade 1–2: 0 patients, n (%)
  TEAE Platelet count decreased, Grade ≥3: 0 patients, n (%)
  TEAE Pyrexia, Grade 1–2: 1 (33) patients, n (%)
  TEAE Pyrexia, Grade ≥3: 0 patients, n (%)
  TEAE Thrombocytopenia, Grade 1–2: 0 patients, n (%)
  TEAE Thrombocytopenia, Grade ≥3: 3 (100) patients, n (%)
  TEAE Upper respiratory tract infection, Grade 1–2: 0 patients, n (%)
  TEAE Upper respiratory tract infection, Grade ≥3: 0 patients, n (%)
  TEAE Vomiting, Grade 1–2: 0 patients, n (%)
  TEAE Vomiting, Grade ≥3: 0 patients, n (%)
  TEAE White blood cell count decreased, Grade 1–2: 0 patients, n (%)
  TEAE White blood cell count decreased, Grade ≥3: 1 (33) patients, n (%)
[4]
  Number of DLTs: a DLT of grade 4 thrombocytopenia and grade 3 neutropenia
  SRC decision (tolerability): declared intolerable; also recorded: Not tolerated
[5]
  TEAE Abdominal pain, Grade 1–2: 1 (13) patients, n (%)
  TEAE Abdominal pain, Grade ≥3: 0 patients, n (%)
  TEAE Alanine aminotransferase increased, Grade 1–2: 0 patients, n (%)
  TEAE Alanine aminotransferase increased, Grade ≥3: 1 (13) patients, n (%)
  TEAE Anemia, Grade 1–2: 3 (38) patients, n (%)
  TEAE Anemia, Grade ≥3: 3 (38) patients, n (%)
  TEAE Any AE, Grade 1–2: 4 (50) patients, n (%)
  TEAE Any AE, Grade ≥3: 4 (50) patients, n (%)

Reference: article PMC9401487 (Clinical Cancer Research, 2021)
